Reference: ChEMBL document CHEMBL1122874, “Orally absorbable cephalosporin antibiotics. 1. Structure-activity relationships of benzothienyl- and naphthylglycine derivatives of 7-aminodeacetoxycephalosporanic acid” (1985)
Converted amounts (≈) assume the structure as drawn.

How the values were obtained:
Streptococcus pneumoniae [1] = test: Antibacterial activity against Streptococcus pneumoniae Park.
Haemophilus influenzae [2] = test: Antibacterial activity against sensitive Haemophilus influenzae C.L.; format: functional
Staphylococcus aureus [3] = test: Antibacterial activity against penicillin G sensitive Staphylococcus aureus X1.1.; format: functional
Haemophilus influenzae [4] = test: Antibacterial activity against resistant Haemophilus influenzae 76.; format: functional
Streptococcus pyogenes [5] = test: Antibacterial activity against Streptococcus pyogenes C203.; format: functional
Staphylococcus aureus [6] = test: Antibacterial activity against penicillin G sensitive Staphylococcus aureus V41; format: functional
Staphylococcus aureus [7] = test: Antibacterial activity against methicillin resistant Staphylococcus aureus S13E.; format: functional
Staphylococcus aureus [8] = test: Antibacterial activity against methicillin resistant Staphylococcus aureus X400; format: functional
[9] = test system: Staphylococcus epidermidis; test: Antibacterial activity against Staph. epidermis EP11; format: functional
Streptococcus = test: Antibacterial activity against Streptococcus group D X66.; format: functional
Streptococcus pneumoniae [10] = test: Antibacterial activity in mice infected with Streptococcus pneumoniae Park1 by subcutaneous administration; format: functional
Staphylococcus aureus [11] = test: Antibacterial activity in mice infected with Staphylococcus aureus 3055; format: functional
Staphylococcus aureus [12] = test: Antibacterial activity in mice infected with Staphylococcus aureus 3055 by oral administration; format: functional
Streptococcus pyogenes [13] = test: Antibacterial activity in mice infected with Streptococcus pyogenes C203 after subcutaneous administration; format: functional
Streptococcus pyogenes [14] = test: Antibacterial activity in mice infected with Streptococcus pyogenes C203 after oral administration; format: functional
Streptococcus pneumoniae [15] = test: Antibacterial activity in mice infected with Streptococcus pneumoniae Park1 by oral administration; format: functional
Staphylococcus aureus [16] = test: Antibacterial activity in mice infected with Staphylococcus aureus 3055 by subcutaneous administration; format: functional
Streptococcus pyogenes [17] = test: Antibacterial activity in mice infected with Streptococcus pyogenes C203; format: functional

| Compound | MIC (Streptococcus pneumoniae [1]) [µg/mL] | MIC (Haemophilus influenzae [2]) [µg/mL] | MIC (Staphylococcus aureus [3]) [µg/mL] | MIC (Haemophilus influenzae [4]) [µg/mL] | MIC (Streptococcus pyogenes [5]) [µg/mL] | MIC (Staphylococcus aureus [6]) [µg/mL] | MIC (Staphylococcus aureus [7]) [µg/mL] | MIC (Staphylococcus aureus [8]) [µg/mL] | MIC [9] [µg/mL] | MIC (Streptococcus) [µg/mL] | ED50 (Streptococcus pneumoniae [10]) [mg/kg] | MIC (Staphylococcus aureus [11]) [µg/mL] | ED50 (Staphylococcus aureus [12]) [mg/kg] | ED50 (Streptococcus pyogenes [13]) [mg/kg] | ED50 (Streptococcus pyogenes [14]) [mg/kg] | ED50 (Streptococcus pneumoniae [15]) [mg/kg] | ED50 (Staphylococcus aureus [16]) [mg/kg] | MIC (Streptococcus pyogenes [17]) [µg/mL] |
| --- | --- | --- | --- | --- | --- | --- | --- | --- | --- | --- | --- | --- | --- | --- | --- | --- | --- | --- |
| CC1=C(C(=O)O)N2C(=O)C(NC(=O)[C@H](N)c3csc4cc(Cl)c(Cl)cc34)C2SC1 (stereo not given in full) | 0.5 (≈ 1.06 µM) | 4 (≈ 8.47 µM) | 1 (≈ 2.12 µM) | 1 (≈ 2.12 µM) | 0.25 (≈ 0.529 µM) | 8 (≈ 16.9 µM) | 4 (≈ 8.47 µM) | 64 (≈ 135 µM) | 4 (≈ 8.47 µM) | – | – | – | – | – | – | – | – | – |
| CC1=C(C(=O)O)N2C(=O)C(NC(=O)[C@H](N)c3ccc4cccc(Cl)c4c3)C2SC1 (stereo not given in full) | 0.25 (≈ 0.579 µM) | 8 (≈ 18.5 µM) | 0.5 (≈ 1.16 µM) | 0.5 (≈ 1.16 µM) | 0.25 (≈ 0.579 µM) | 1 (≈ 2.32 µM) | 1 (≈ 2.32 µM) | 4 (≈ 9.26 µM) | 1 (≈ 2.32 µM) | 16 (≈ 37 µM) | – | – | – | – | – | – | – | – |
| COc1ccc2cc([C@@H](N)C(=O)NC3C(=O)N4C(C(=O)O)=C(C)CSC34)ccc2c1 (stereo not given in full) | 0.125 (≈ 0.292 µM) | 16 (≈ 37.4 µM) | 0.25 (≈ 0.585 µM) | 4 (≈ 9.36 µM) | 0.125 (≈ 0.292 µM) | 16 (≈ 37.4 µM) | 16 (≈ 37.4 µM) | 64 (≈ 150 µM) | 4 (≈ 9.36 µM) | – | – | – | – | – | – | – | – | – |
| CC1=C(C(=O)O)N2C(=O)C(NC(=O)[C@H](N)c3csc4ccc(F)cc34)C2SC1 (stereo not given in full) | 1 (≈ 2.37 µM) | 4 (≈ 9.49 µM) | 1 (≈ 2.37 µM) | 4 (≈ 9.49 µM) | 0.25 (≈ 0.593 µM) | 8 (≈ 19 µM) | 8 (≈ 19 µM) | 64 (≈ 152 µM) | 8 (≈ 19 µM) | 128 (≈ 304 µM) | – | – | – | – | – | – | – | – |
| CC1=C(C(=O)O)N2C(=O)C(NC(=O)[C@H](N)c3cccc4ccc(Cl)cc34)C2SC1 (stereo not given in full) | – | 16 (≈ 37 µM) | 1 (≈ 2.32 µM) | 4 (≈ 9.26 µM) | 0.25 (≈ 0.579 µM) | 4 (≈ 9.26 µM) | 4 (≈ 9.26 µM) | 16 (≈ 37 µM) | 2 (≈ 4.63 µM) | – | – | – | – | – | – | – | – | – |
| CC1=C(C(=O)O)N2C(=O)C(NC(=O)[C@H](N)c3csc4c(F)cccc34)C2SC1 (stereo not given in full) | 0.5 (≈ 1.19 µM) | 4 (≈ 9.49 µM) | 0.5 (≈ 1.19 µM) | 0.5 (≈ 1.19 µM) | 0.125 (≈ 0.297 µM) | 16 (≈ 38 µM) | 8 (≈ 19 µM) | 128 (≈ 304 µM) | 4 (≈ 9.49 µM) | – | – | – | – | – | – | – | – | – |
| CC1=C(C(=O)O)N2C(=O)C(NC(=O)[C@@H](N)c3cc4c(s3)CCCC4)C2SC1 (stereo not given in full) | 0.25 (≈ 0.613 µM) | 16 (≈ 39.3 µM) | 0.25 (≈ 0.613 µM) | 4 (≈ 9.82 µM) | 0.06 (≈ 0.147 µM) | 16 (≈ 39.3 µM) | 8 (≈ 19.6 µM) | – | 2 (≈ 4.91 µM) | 64 (≈ 157 µM) | – | – | – | – | – | – | – | – |
| COc1ccc2c([C@@H](N)C(=O)NC3C(=O)N4C(C(=O)O)=C(C)CSC34)csc2c1 (stereo not given in full) | 0.125 (≈ 0.288 µM) | 32 (≈ 73.8 µM) | 1 (≈ 2.31 µM) | 4 (≈ 9.23 µM) | 0.125 (≈ 0.288 µM) | 8 (≈ 18.5 µM) | 4 (≈ 9.23 µM) | 16 (≈ 36.9 µM) | 4 (≈ 9.23 µM) | – | – | – | – | – | – | – | – | – |
| CC1=C(C(=O)O)N2C(=O)C(NC(=O)[C@@H](N)c3cc4c(Cl)cccc4s3)C2SC1 (stereo not given in full) | 0.5 (≈ 1.14 µM) | 32 (≈ 73.1 µM) | 0.5 (≈ 1.14 µM) | 1 (≈ 2.28 µM) | 0.125 (≈ 0.285 µM) | 4 (≈ 9.13 µM) | 4 (≈ 9.13 µM) | 16 (≈ 36.5 µM) | 2 (≈ 4.57 µM) | 64 (≈ 146 µM) | – | – | – | – | – | – | – | – |
| CC1=C(C(=O)O)N2C(=O)C(NC(=O)[C@H](N)c3csc4ccc(Cl)cc34)C2SC1 (stereo not given in full) | 0.25 (≈ 0.571 µM) | – | 0.5 (≈ 1.14 µM) | 0.5 (≈ 1.14 µM) | 0.125 (≈ 0.285 µM) | 4 (≈ 9.13 µM) | 2 (≈ 4.57 µM) | 16 (≈ 36.5 µM) | 4 (≈ 9.13 µM) | 64 (≈ 146 µM) | – | – | – | – | – | – | – | – |
| CC1=C(C(=O)O)N2C(=O)C(NC(=O)[C@H](N)c3cccc4ccccc34)C2SC1 (stereo not given in full) | 2 (≈ 5.03 µM) | 8 (≈ 20.1 µM) | 1 (≈ 2.52 µM) | 2 (≈ 5.03 µM) | 2 (≈ 5.03 µM) | 32 (≈ 80.5 µM) | 32 (≈ 80.5 µM) | 64 (≈ 161 µM) | 8 (≈ 20.1 µM) | 128 (≈ 322 µM) | – | – | – | – | – | – | – | – |
| CC1=C(C(=O)O)N2C(=O)C(NC(=O)[C@H](N)c3ccc4cc(Cl)ccc4c3)C2SC1 (stereo not given in full) | 0.25 (≈ 0.579 µM) | 32 (≈ 74.1 µM) | 0.25 (≈ 0.579 µM) | 2 (≈ 4.63 µM) | 0.06 (≈ 0.139 µM) | 8 (≈ 18.5 µM) | 8 (≈ 18.5 µM) | 64 (≈ 148 µM) | 4 (≈ 9.26 µM) | 64 (≈ 148 µM) | – | – | – | – | – | – | – | – |
| CC1=C(C(=O)O)N2C(=O)C(NC(=O)[C@@H](N)c3cc4cc(Cl)ccc4s3)C2SC1 (stereo not given in full) | 0.25 (≈ 0.571 µM) | 64 (≈ 146 µM) | 0.25 (≈ 0.571 µM) | 4 (≈ 9.13 µM) | 0.125 (≈ 0.285 µM) | 8 (≈ 18.3 µM) | 16 (≈ 36.5 µM) | – | 2 (≈ 4.57 µM) | – | – | – | – | – | – | – | – | – |
| CC1=C(C(=O)O)N2C(=O)C(NC(=O)[C@H](N)c3csc4cc(F)ccc34)C2SC1 (stereo not given in full) | 0.5 (≈ 1.19 µM) | – | – | – | – | – | 8 (≈ 19 µM) | – | 4 (≈ 9.49 µM) | 128 (≈ 304 µM) | – | – | – | – | – | – | – | – |
| CC1=C(C(=O)O)N2C(=O)C(NC(=O)[C@H](N)c3csc4cc(Cl)ccc34)C2SC1 (stereo not given in full) | 1 (≈ 2.28 µM) | 8 (≈ 18.3 µM) | 1 (≈ 2.28 µM) | 1 (≈ 2.28 µM) | 0.5 (≈ 1.14 µM) | 8 (≈ 18.3 µM) | 8 (≈ 18.3 µM) | 16 (≈ 36.5 µM) | 4 (≈ 9.13 µM) | 128 (≈ 292 µM) | – | – | – | – | – | – | – | – |
| CC1=C(C(=O)O)N2C(=O)[C@@H](NC(=O)[C@H](N)c3ccccc3)[C@H]2SC1 [CEPHALEXIN ANHYDROUS] | 1 (≈ 2.88 µM) | – | 4 (≈ 11.5 µM) | – | 0.5 (≈ 1.44 µM) | – | – | – | – | – | 23 | 1 (≈ 2.88 µM) | 0.34 | 2.9 | 3.3 | 51 | 0.2 | 0.5 (≈ 1.44 µM) |
